Measured values reported in US6914045B2, “Glycopeptide antibiotics” (Wyeth Holdings Corporation, priority 2001, dated 2005).
≈ marks a conversion by molar mass, not a printed value.

Legend:
Experiment in all cases: in vitro antibacterial evaluation, MIC by broth dilution
Format in all cases: cell-based
Enterococcus sp. = conditions: broth dilution, 18 hours at 35° C.
How it was run: (§1)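 Following National Committee for Clinical Laboratory Standards recommendations (M7-A2), susceptibility was measured by dilution in Muller-Hinton II […]. Bacteria were seeded at 5×10^5 CFU/mL against compound concentrations from 64 down to 0.06 μg/mL.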

Escherichia coli = conditions: 18 hours at 35° C.
How it was run: as §1

Staphylococcus sp. = conditions: broth dilution, 18 hours at 35° C.
How it was run: as §1

Streptococcus sp. = conditions: broth dilution, 18 hours at 35° C.
How it was run: as §1

MIC Enterococcus avium (GC 4558) (Enterococcus sp.; Enterococcus avium (GC 4558)): 64 µg/mL (≈ 45.7 µM)
MIC Enterococcus faecalis (ATCC 29212) (Enterococcus sp.; Enterococcus faecalis (ATCC 29212)): >64 µg/mL
MIC Enterococcus faecalis (GC 2242) (Enterococcus sp.; Enterococcus faecalis (GC 2242)): 64 µg/mL (≈ 45.7 µM)
MIC Enterococcus faecalis (GC 2691) (Enterococcus sp.; Enterococcus faecalis (GC 2691)): >64 µg/mL
MIC Enterococcus faecalis (GC 3059) (Enterococcus sp.; Enterococcus faecalis (GC 3059)): >64 µg/mL
MIC Enterococcus faecalis (GC 4552) (Enterococcus sp.; Enterococcus faecalis (GC 4552)): >64 µg/mL
MIC Enterococcus faecalis (GC 4553) (Enterococcus sp.; Enterococcus faecalis (GC 4553)): >64 µg/mL
MIC Enterococcus faecalis (GC 4554) (Enterococcus sp.; Enterococcus faecalis (GC 4554)): >64 µg/mL
MIC Enterococcus faecalis (GC 6189) (Enterococcus sp.; Enterococcus faecalis (GC 6189)): 64 µg/mL (≈ 45.7 µM)
MIC Enterococcus faecium (GC 2243) (Enterococcus sp.; Enterococcus faecium (GC 2243)): >64 µg/mL
MIC Enterococcus faecium (GC 4556) (Enterococcus sp.; Enterococcus faecium (GC 4556)): 64 µg/mL (≈ 45.7 µM)
MIC Enterococcus faecium (GC 4557) (Enterococcus sp.; Enterococcus faecium (GC 4557)): 8 µg/mL (≈ 5.72 µM)
MIC Enterococcus faecalis (ATCC 29212) (Enterococcus sp.; strain ATCC 29212): >64 µg/mL
MIC Enterococcus faecalis (GC 2242) (Enterococcus sp.; strain GC 2242): 64 µg/mL (≈ 45.7 µM)
MIC Enterococcus faecium (GC 2243) (Enterococcus sp.; strain GC 2243): >64 µg/mL
MIC Enterococcus faecalis (GC 2691) (Enterococcus sp.; strain GC 2691): >64 µg/mL
MIC Enterococcus faecalis (GC 3059) (Enterococcus sp.; strain GC 3059): >64 µg/mL
MIC Enterococcus faecalis (GC 4552) (Enterococcus sp.; strain GC 4552): >64 µg/mL
MIC Enterococcus faecalis (GC 4553) (Enterococcus sp.; strain GC 4553): >64 µg/mL
MIC Enterococcus faecalis (GC 4554) (Enterococcus sp.; strain GC 4554): >64 µg/mL
MIC Enterococcus faecium (GC 4556) (Enterococcus sp.; strain GC 4556): 64 µg/mL (≈ 45.7 µM)
MIC Enterococcus faecium (GC 4557) (Enterococcus sp.; strain GC 4557): 8 µg/mL (≈ 5.72 µM)
MIC Enterococcus avium (GC 4558) (Enterococcus sp.; strain GC 4558): 64 µg/mL (≈ 45.7 µM)
MIC Enterococcus faecalis (GC 6189) (Enterococcus sp.; strain GC 6189): 64 µg/mL (≈ 45.7 µM)
MIC Escherichia coli (ATCC 25922) (Escherichia coli; strain ATCC 25922): >64 µg/mL
MIC Escherichia coli (GC 4559) (Escherichia coli; strain GC 4559): >64 µg/mL
MIC Escherichia coli (GC 4560) (Escherichia coli; strain GC 4560): 4 µg/mL (≈ 2.86 µM)
MIC Staphylococcus aureus (ATCC 29213) (Staphylococcus sp.): 16 µg/mL (≈ 11.4 µM)
MIC Staphylococcus aureus (GC 1131) (Staphylococcus sp.): 16 µg/mL (≈ 11.4 µM)
MIC Staphylococcus aureus (GC 3051) (Staphylococcus sp.): 16 µg/mL (≈ 11.4 µM)
MIC Staphylococcus aureus (GC 3053) (Staphylococcus sp.): 32 µg/mL (≈ 22.9 µM)
MIC Staphylococcus aureus (GC 4541) (Staphylococcus sp.): 8 µg/mL (≈ 5.72 µM)
MIC Staphylococcus aureus (GC 4542) (Staphylococcus sp.): 16 µg/mL (≈ 11.4 µM)
MIC Staphylococcus aureus (GC 4544) (Staphylococcus sp.): 16 µg/mL (≈ 11.4 µM)
MIC Staphylococcus aureus (GC 4545) (Staphylococcus sp.): 16 µg/mL (≈ 11.4 µM)
MIC Staphylococcus aureus (GC 1131) (Staphylococcus sp.; inoculum 5×10^5 CFU/mL, strain GC 1131): 16 µg/mL (≈ 11.4 µM)
MIC Staphylococcus aureus (ATCC 29213) (Staphylococcus sp.; strain ATCC 29213): 16 µg/mL (≈ 11.4 µM)
MIC Staphylococcus aureus (GC 3051) (Staphylococcus sp.; strain GC 3051): 16 µg/mL (≈ 11.4 µM)
MIC Staphylococcus aureus (GC 3053) (Staphylococcus sp.; strain GC 3053): 32 µg/mL (≈ 22.9 µM)
MIC Staphylococcus aureus (GC 4541) (Staphylococcus sp.; strain GC 4541): 8 µg/mL (≈ 5.72 µM)
MIC Staphylococcus aureus (GC 4542) (Staphylococcus sp.; strain GC 4542): 16 µg/mL (≈ 11.4 µM)
MIC Staphylococcus aureus-SMITH (GC 4543) (Staphylococcus sp.; strain GC 4543): 16 µg/mL (≈ 11.4 µM)
MIC Staphylococcus aureus (GC 4544) (Staphylococcus sp.; strain GC 4544): 16 µg/mL (≈ 11.4 µM)
MIC Staphylococcus aureus (GC 4545) (Staphylococcus sp.; strain GC 4545): 16 µg/mL (≈ 11.4 µM)
MIC Coagulase Negative Staphylococcus (GC 4547) (Staphylococcus sp.; strain GC 4547): 8 µg/mL (≈ 5.72 µM)
MIC Coagulase Negative Staphylococcus (GC 4548) (Staphylococcus sp.; strain GC 4548): 8 µg/mL (≈ 5.72 µM)
MIC Coagulase Negative Staphylococcus (GC 4549) (Staphylococcus sp.; strain GC 4549): 4 µg/mL (≈ 2.86 µM)
MIC Coagulase Negative Staphylococcus (GC 4551) (Staphylococcus sp.; strain GC 4551): 32 µg/mL (≈ 22.9 µM)
MIC Coagulase Negative Staphylococcus (GC 6257) (Staphylococcus sp.; strain GC 6257): 4 µg/mL (≈ 2.86 µM)
MIC Staphylococcus aureus-SMITH (GC 4543) (Staphylococcus sp.; strain SMITH GC 4543): 16 µg/mL (≈ 11.4 µM)
MIC Streptococcus agalactiae (GC 4564) (Streptococcus sp.; Streptococcus agalactiae (GC 4564)): 8 µg/mL (≈ 5.72 µM)
MIC Streptococcus pneumoniae (ATCC 6301) (Streptococcus sp.; Streptococcus pneumoniae (ATCC 6301)): 2 µg/mL (≈ 1.43 µM)
MIC Streptococcus pneumoniae (GC 1894) (Streptococcus sp.; Streptococcus pneumoniae (GC 1894)): 1 µg/mL (≈ 0.715 µM)
MIC Streptococcus pneumoniae (GC 4565) (Streptococcus sp.; Streptococcus pneumoniae (GC 4565)): 4 µg/mL (≈ 2.86 µM)
MIC Streptococcus pyogenes (GC 4563) (Streptococcus sp.; Streptococcus pyogenes (GC 4563)): 8 µg/mL (≈ 5.72 µM)
MIC Streptococcus pneumoniae (ATCC 6301) (Streptococcus sp.; strain ATCC 6301): 2 µg/mL (≈ 1.43 µM)
MIC Streptococcus pneumoniae (GC 1894) (Streptococcus sp.; strain GC 1894): 1 µg/mL (≈ 0.715 µM)
MIC Streptococcus pyogenes (GC 4563) (Streptococcus sp.; strain GC 4563): 8 µg/mL (≈ 5.72 µM)
MIC Streptococcus agalactiae (GC 4564) (Streptococcus sp.; strain GC 4564): 8 µg/mL (≈ 5.72 µM)
MIC Streptococcus pneumoniae (GC 4565) (Streptococcus sp.; strain GC 4565): 4 µg/mL (≈ 2.86 µM)
Compound: CC(c1ccccc1)C1NC(=O)CNC(=O)C(CO)NC(=O)C(C(O)C2CNC(=N)N2C2OC(CO)C(O)C(O)C2O)NC(=O)C(C(O)C2CNC(=N)N2)NC(=O)C(Cc2ccc(OC3OC(CO)C(OC4OC5COC(c6cccc(O)c6)OC5C(O)C4O)C(O)C3O)cc2)NC1=O (stereo not drawn) [Example 136, Cyclo[glycyl-β-methylphenylalanyl-O-[4-O-[4,6-O-(3-hydroxybenzylidene)hexopyranosyl]-hexopyranosyl]tyrosyl-3-(2-iminoimidazolidin-4-yl)seryl-3-(3-hexopyranosyl-2-iminoimidazolidin-4-yl)serylseryl]]
MIC Staphylococcus haemolyticus (GC 4546) (Staphylococcus sp.; strain GC 4546): 16 µg/mL (≈ 11.4 µM)
